Test results taken from patent publication US12285394B2, “Ketogenic compounds, compositions, methods and use thereof” (9500-0535 QUEBEC INC., priority 2018, dated 2025).

Assay: pH of the compounds
Assay type: physicochemical

pKa: ~4.4
SMILES: CC(O)CC(=O)O (stereo not drawn) [BHB, β-hydroxybutyric acid]
